In article PMC7527053, “Structure of Merkel Cell Polyomavirus Capsid and Interaction with Its Glycosaminoglycan Attachment Receptor” (Journal of Virology, 2020) one finds stoichiometry N and STD-NMR data, which are given here for three compounds.

As usually defined, the stoichiometry N is a count of units in the complex or per binding partner.

Assay [1] concerns the target Merkel cell polyomavirus (MCPyV) major capsid protein VP1, assembled as virus-like particles (Merkel cell polyomavirus (MCC isolate 339)). Nature of the assay: nonreducing SDS-PAGE; purified VLPs incubated with 10 mM DTT and/or 50 mM EDTA with 2% SDS for 1 h at ambient temperature; capsid to pentamers.
The target is the same in assay [2]. The experiment in a line: crystal structure; filled VLPs (fVLPs), crystals grown in 0.1 M sodium citrate pH 4.6, 30% MPD, 0.2 M NaCl at 20°C; 3.5 Å.
The target in assay [3] is T1, MCPyV VLPs (VP1/VP2 virus-like particles) (Merkel cell polyomavirus, UniProt B0G0W3).
T1 construct: untagged icosahedral VLPs of 72 VP1 pentamers; VP1-only VLPs behaved the same; with Minor capsid protein VP2
The experiment in a line: STD-NMR. The assay is classed as binding. The note with it: 10 uM VLP, 1 mM ligand, 150 mM NaCl, 1 mM CaCl2, D2O, 283 K.

Assay [4] deals with T2, HPV-16 VLPs (L1- and L2-containing) (Human papillomavirus 16, UniProt P03101).
T2 construct: L1/L2 VLPs produced by the MCPyV VLP procedure (293TT cells) without the ion chromatography step; plasmids pshell16 and p16L1L2; with Minor capsid protein L2
The experiment in a line: STD-NMR. The settings on record: 10 uM VLP, 1 mM ligand, D2O, 283 K; buffer printed as PBS and as 150 mM NaCl, 20 mM KH2PO4 pH 7.4. The assay is classed as binding.

For “Merkel cell polyomavirus (MCPyV) major capsid protein VP1, assembled as virus-like particles (natural protein)”, the figures for the stoichiometry N in assay [1] and in assay [2] were 5 and 360, respectively.
`CO[C@H]1O[C@H](COS(=O)(=O)O)[C@@H](O[C@@H]2O[C@@H](C(=O)O)[C@@H](O[C@H]3O[C@H](COS(=O)(=O)O)[C@@H](O[C@@H]4O[C@H](C(=O)O)[C@@H](O[C@H]5O[C@H](COS(=O)(=O)O)[C@@H](O)[C@H](O)[C@H]5NS(=O)(=O)O)[C@H](O)[C@H]4O)[C@H](OS(=O)(=O)O)[C@H]3NS(=O)(=O)O)[C@H](O)[C@H]2OS(=O)(=O)O)[C@H](O)[C@H]1NS(=O)(=O)O` [Arixtra, GlcNS6Sα1-4GlcAα1-4GlcNS3S6Sα1-4IdoA2Sα1-4GlcNS6Sα-OMet]: the values for the STD-NMR entry in assay [3] (filled (and empty) VLPs) and in assay [4] were “we observed STD-NMR signals throughout the full length of the pentasaccharide” and “the HPV-16 VLP Arixtra binding epitope is indistinguishable from the MCPyV VLP Arixtra epitope”, respectively.
In the case of `O=C(O)C1=C[C@H](O)[C@@H](OS(=O)(=O)O)[C@H](O[C@H]2[C@H](O)[C@@H](NS(=O)(=O)O)C(O)O[C@@H]2COS(=O)(=O)O)O1` (some centres unmarked) [HS-dp2, ΔUA2Sα1-4GlcNS6S], the STD-NMR entry in assay [3] (VP1-only and VP1/VP2 VLPs) is “an interaction between MCPyV VLPs and dp2 was unambiguously observed”.
